In a melting point compilation (Tetko et al.):

Compound | melting point [°C]
CC(Cc1ccccc1Cl)C(=O)O (stereo unspecified) | 56 to 58
CCOC(=O)c1ccn(-c2ccc(N)cc2)n1 | 97 to 99
O=C(O)CSc1cccc(Br)c1 | 79 to 81
CNC(=O)c1c(C)cccc1N | 109 to 111
CCc1nnc(S)n1C | 138 to 140
O=C(Nc1nc(C(F)(F)F)cs1)OCC(F)(F)F | 78 to 80
c1cnc2c(c1)NCCO2 | 111 to 113
CC(CC(=O)O)NC(=O)OC(C)(C)C (stereo unspecified) | 94 to 96
CC(C)(C)c1ccc(CCC(=O)O)cc1 | 105 to 107
Cc1nc(C)c(S(N)(=O)=O)s1 | 142 to 144
O=S(=O)(Cl)c1ccc2c(Cl)ccc(Cl)c2c1 | 127 to 129
CCOC(=O)c1cc(C)nc2cc(C)nn12 | 81 to 83
CN1CCN(c2ccc(F)cc2N)CC1 | 126 to 128
O=C(O)c1cc(C2CC2)nc2c1cnn2Cc1ccncc1 | 238 to 240
O=C(O)c1cccc(OCC(F)(F)F)c1 | 104 to 106
Sc1nc2ccccc2n1C1CCCCC1 | 178 to 182
O=[N+]([O-])c1ccc(Cl)c2c1CCCN2 | 93 to 95
CCC(=O)N1CCC(C(=O)O)C1 (stereo unspecified) | 118 to 120
Cc1nnc(CO)s1 | 83 to 85
O=C(CCl)NCCC(c1ccccc1)c1ccccc1 | 104 to 107
CN(C)S(=O)(=O)c1ccc2[nH]c(=O)c(=O)[nH]c2c1 | 319 to 321
COC(=O)C(=O)CC(=O)c1cccnc1 | 113 to 115
COCCn1cc(S(=O)(=O)Cl)cn1 | 35 to 37
COc1cc(Cl)c(C(=O)CBr)cc1OC | 93 to 95

Compound | melting point [°C]
O=C1C(Br)CCCN1c1ccccc1F (stereo unspecified) | 54 to 56
CC(O)c1c(Cl)nc2ccccn12 (stereo unspecified) | 132 to 134
CC(C)COc1cn(-c2ccccc2)nc1C(=O)O | 132 to 134
O=C(O)c1cccnc1N1CCCCC1 | 94 to 96
CN(C)C(=O)c1cn[nH]c1N | 167 to 169
O=C(O)CNC(=O)/C=C/c1ccccc1 | 191 to 193
O=C(O)CCc1csc2ccccc12 | 140 to 142
CC(Oc1ccc(C#N)cc1)C(=O)O (stereo unspecified) | 158 to 160
NC(=S)Nc1ccc2c(c1)CCC2 | 179 to 181
CCCNC(=O)Nc1ccc(CC(=O)O)cc1 | 174 to 176
O=S(=O)(Cl)c1ccc2c(c1)Cc1ccccc1-2 | 157 to 159
CCCOc1ccc(C(N)=S)cc1 | 142 to 144
Cn1c(-c2ccccc2)c(C(=O)CCl)c2ccccc21 | 146 to 148
NC(=O)C1CCC(C(F)(F)F)NC1 (stereo unspecified) | 127 to 129
CCNc1ccc(S(=O)(=O)C(F)(F)F)cc1N | 149 to 151
Nc1cc(C(=O)O)ccc1OC(F)F | 155 to 157
CC(CC(=O)O)c1ccccc1C(F)(F)F (stereo unspecified) | 76 to 78
Cc1nnc(-c2ccc(C(=O)O)cc2)n1C | 269 to 271
COC(=O)C(=O)CC(=O)c1ccc(C)cc1C | 63 to 65
Clc1ccnc2cc(Br)cnc12 | 182 to 184
CCN(CC)c1ccc(S(=O)(=O)N2CCOCC2)cc1NC(=O)CCl | 99 to 101
CC(C)c1ccc(NC(=S)NN)cc1 | 179 to 181
COc1ccc(Br)c(S(=O)(=O)Cl)c1 | 63 to 65
COC(=O)CNS(=O)(=O)c1ccc(Cl)nc1 | 124 to 126

Compound | melting point [°C]
O=[N+]([O-])c1ccc2nc(S)oc2c1 | 192 to 194
Nc1ccn(-c2ncccc2Cl)n1 | 89 to 91
Nc1cc(C2CCCO2)no1 (stereo unspecified) | 68 to 70
CC(C)(C)OC(=O)N1CC(OCCC(=O)O)C1 | 52 to 54
COc1cc(N)cc(Br)c1 | 39 to 41
NC(=O)c1cc(N)cc(C(N)=O)c1 | 246 to 248
N#Cc1ccc(NCCC(N)=O)c(F)c1 | 156 to 158
O=[N+]([O-])c1ccc(-c2ncc(CO)o2)cc1 | 154 to 156
O=C1NCCCCC1Oc1ccc(Br)cc1 (stereo unspecified) | 176 to 178
CCn1nc(C)c(S(=O)(=O)Cl)c1C | 34 to 36
O=[N+]([O-])c1ccc(-c2noc(C(F)F)n2)cc1 | 76 to 78
Cc1ccc(-c2nc(C(=O)O)cs2)c(C)c1 | 129 to 131
COC(=O)c1n[nH]c2ccc(N)cc12 | 181 to 183
Clc1ncnc2[nH]ccc12 | 195 to 197
CC1CN(c2cc(N)cc(F)c2)CC(C)O1 (stereo unspecified) | 80 to 82
Cc1nc(-c2c[nH]c(C(=O)O)c2)cs1 | 209 to 211
O=C1COc2c(Br)cc(Cl)cc21 | 139 to 141
COc1ccc(CNc2ccc3[nH]c(=O)[nH]c3c2)cc1 | 254 to 256
COc1cc(S(N)(=O)=O)c(OC)cc1N | 203 to 205
O=Cc1cn(Cc2ccccc2)nc1-c1cc2ccccc2o1 | 146 to 148
O=C(O)c1ccc2c(c1)C(=O)N(c1ccc(F)cc1)C2=O | 295 to 297
CC(C)n1nc(C(=O)O)c2ccccc2c1=O | 142 to 144
CS(=O)(=O)c1ccc(CN)cc1 | 272 to 274
